Test [1] has as its target T1, FK-506 binding protein (FKBP) (Homo sapiens, UniProt P62942). Put plainly: Inhibition of PPIase (rotamase) enzyme activity of FKBP (apparent Ki). It is filed as biochemical. The settings on record: substrate N-succinylAla-Ala-Pro-Phe-p-nitroanilide, chymotrypsin-coupled. The method, boiled down: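 Cis-trans isomerization of N-succinyl-Ala-Ala-Pro-Phe-p-nitroanilide was followed spectrophotometrically in a chymotrypsin-coupled assay releasing 4-nitroanilide from the trans substrate. Apparent Ki came from the change in first-order rate constant across inhibitor concentrations.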

For test [2], the system named is PBLs stimulated with LB human viral transformed B lymphoblastoid cells. In words: MLR bioassay LB: inhibition of proliferation in mixed lymphocyte reaction. It is filed as cell-based. The following applies: Lymphoblastoid cell, pulsed on day 6, harvested 24 h later. The method, boiled down:
(§1)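 Fresh human PBLs (5×10^4) stimulated with 5×10^3 Mitomycin C-treated allogeneic EBV-transformed B lymphoblastoid cells in RPMI 1640 with 10% FCS, with or without compound (DMSO stocks). Pulsed on day 6, harvested 24 h later and counted.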

The subject of test [3] is human peripheral blood lymphocytes. Put plainly: Mitogenesis assay OKT3: inhibition of proliferation of human PBLs. It is filed as cell-based. The following applies: Lymphocyte, OKT3 (10^-4 dilution final), 48 h incubation. The procedure, abridged: (§2)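 Human PBLs from normal donors, isolated over Histopaque 1077 and cultured in RPMI 1640 with 10% heat-inactivated FCS, were stimulated with PMA or OKT3 mitogen in the presence of compound (DMSO stocks). After 48 h at 37 °C and 5% CO2, cells were pulsed with 1 μCi ³H-thymidine and harvested 24 h later for scintillation counting.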

For test [4], the system named is PBLs stimulated with JVM human viral transformed B lymphoblastoid cells. Put plainly: MLR bioassay JVM: inhibition of proliferation in mixed lymphocyte reaction. Format: cell-based. The following applies: Lymphoblastoid cell, pulsed on day 6, harvested 24 h later. The method, boiled down: as §1
Test [5] deals with T1, FK-506 binding protein (FKBP). In words: Competitive binding to FKBP against [3H]dihydro-FK-506 (apparent Kd). The following applies: competition with [3H]dihydro-FK-506.
Test [6] relates to human peripheral blood lymphocytes. Put plainly: Mitogenesis assay PMA: inhibition of proliferation of human PBLs. It is filed as cell-based. The settings on record: Lymphocyte, PMA (10 ng/ml) plus ionomycin (250 ng/ml), 48 h incubation. The procedure, abridged:
as §2

T1 sequence (P62942 whole entry): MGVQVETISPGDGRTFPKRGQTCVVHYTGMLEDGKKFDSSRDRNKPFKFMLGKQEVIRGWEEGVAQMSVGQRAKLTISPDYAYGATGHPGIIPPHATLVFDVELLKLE

In general, IC50 refers to the concentration needed to halve the response being measured. For `O=C(C(=O)N1CCCC[C@H]1C(=O)OCCCCc1ccccc1)C1CCCCC1` [Compound 98], the Ki in test [1] worked out at 0.08 µM. Further, the IC50 in test [2], in test [3], in test [4] and in test [6] was above 10 µM in each case. The Kd in test [5] was found to be 0.18 µM.
`O=C(C(=O)N1CCCC[C@H]1C(=O)OCCCCc1ccccc1)c1cccc(I)c1` [Compound 82]: the Ki in test [1] turned out to be 0.13 µM. Also, the IC50 is above 10 µM in test [2], above 10 µM in test [3], above 10 µM in test [4] and 10 µM in test [6]. The Kd in test [5] came to 0.2 µM.
Consider `O=C(OCc1ccccc1)[C@@H]1CCCCN1C(=O)C(=O)C1(O)CCCCC1` [Compound 46], for which the Ki in test [1] came out at 1 µM. Besides, the IC50 in test [2], in test [3], in test [4] and in test [6] was above 10 µM in each case. Moreover, the Kd in test [5] worked out at 2 µM.
As to `O=C(C(=O)N1CCCC[C@H]1C(=O)OCc1ccccc1)c1cccc(OCc2ccccc2)c1` [Compound 53], the Ki in test [1] stood at 0.5 µM. Also, the 50% inhibitory concentration (IC50) was above 10 µM in test [2], 8 µM in test [3], above 10 µM in test [4] and above 10 µM in test [6]. In addition, the Kd in test [5] came out at 0.2 µM.
As for `O=C(C(=O)N1CCCC[C@H]1C(=O)OCc1ccccc1)c1cccs1` [Compound 22], in test [1], the Ki stood at 0.8 µM. Moreover, the IC50 in test [2], in test [3], in test [4] and in test [6] was above 10 µM in each case. Besides, in test [5], the Kd was determined as 4 µM.
`C[C@H](OC(=O)[C@@H]1CCCCN1C(=O)C(=O)c1ccccc1)c1ccccc1` [Compound 49]: the Ki in test [1] was 0.5 µM. The half-maximal inhibitory concentration (IC50) was above 10 µM in test [2], 6.2 µM in test [3], above 10 µM in test [4] and above 10 µM in test [6]. The Kd in test [5] was determined as 0.6 µM.
With `COc1cc(C(=O)C(=O)N2CCCC[C@H]2C(=O)OCCCc2cn(C=O)c3ccccc23)cc(OC)c1OC` [Compound 93], in test [1], the Ki was 0.015 µM. For the same molecule, the half-inhibitory concentration (IC50) stood at 10 µM in test [2], 7 µM in test [3], 8.7 µM in test [4] and 6 µM in test [6]. The Kd in test [5] is 0.06 µM.
On to `COc1cc(C(=O)C(=O)N2CCCC[C@H]2C(=O)OCCCCCCc2ccccc2)cc(OC)c1OC` [Compound 71], for which, in test [1], the Ki is 0.1 µM. The concentration for half-maximal inhibition (IC50) in test [2] was found to be 7.5 µM; in test [3], 5.5 µM; in test [4] it was 8 µM; in test [6] it was 5 µM. In addition, in test [5], the Kd came out at 0.05 µM.
On to `O=C(C(=O)N1CCCC[C@H]1C(=O)OCc1ccccc1)c1ccc2ccccc2c1` [Compound 47], for which the Ki in test [1] is 1.5 µM. Besides, the IC50 in test [2], in test [3], in test [4] and in test [6] was above 10 µM each time. Besides, in test [5], the Kd worked out at 0.3 µM.
With `COc1cc(C(=O)C(=O)N2CCCC[C@H]2C(=O)OCCCCCC2CCCCC2)cc(OC)c1OC` [Compound 74], in test [1], the Ki was found to be 0.09 µM. The 50% inhibitory concentration (IC50) in test [2] amounted to 10 µM; in test [3], 9 µM; in test [4], 10 µM; in test [6], 8 µM. The Kd in test [5] was 0.08 µM.
Take `O=C(C(=O)N1CCCC[C@H]1C(=O)OCc1ccccc1)c1ccc([N+](=O)[O-])cc1` [Compound 16]: in test [1], the Ki was 160 µM. In addition, the IC50 in test [2], in test [3], in test [4] and in test [6] was above 10 µM in each case. The Kd in test [5] was 100 µM.
`COc1cc(C(=O)C(=O)N2CCCC[C@H]2C(=O)OCCCCCCC2CCCCC2)cc(OC)c1OC` [Compound 72]: the Ki in test [1] stood at 0.05 µM. The IC50 in test [2] was above 10 µM; in test [3], above 10 µM; in test [4], above 10 µM; in test [6] it was 9 µM. For the same molecule, the Kd in test [5] turned out to be 0.5 µM.
As for `O=C(C(=O)N1CCCC[C@H]1C(=O)OCc1ccccc1)C1CCCCC1` [Compound 40], the Ki in test [1] was 1.3 µM. In addition, the IC50 was above 10 µM in test [2], 1 µM in test [3], above 10 µM in test [4] and 7 µM in test [6]. Moreover, the Kd in test [5] stood at 3 µM.
In the case of `COc1cc(C(=O)C(=O)N2CCCC[C@H]2C(=O)OCCCCc2ccc(I)cc2)cc(OC)c1OC` [Compound 77], the Ki in test [1] came out at 0.016 µM. Further, the IC50 is 6 µM in test [2], 8 µM in test [3], 7 µM in test [4] and 4.5 µM in test [6]. The Kd in test [5] came out at 0.06 µM.
Turning to `O=C(C(=O)N1CCCC[C@H]1C(=O)OCc1ccccc1)c1cccc(C(F)(F)F)c1` [Compound 52], the Ki in test [1] worked out at 1.5 µM. Moreover, the IC50 in test [2], in test [3], in test [4] and in test [6] was above 10 µM in each case. Also, in test [5], the Kd stood at 1.3 µM.
As to `O=C(C(=O)N1CCCC[C@H]1C(=O)OCCCCc1ccccc1)c1ccc(I)cc1` [Compound 81], in test [1], the Ki is 0.8 µM. Besides, the IC50 is above 10 µM in test [2], above 10 µM in test [3], above 10 µM in test [4] and 7 µM in test [6]. Besides, in test [5], the Kd was found to be 0.25 µM.
With `COc1cccc(C(=O)C(=O)N2CCCC[C@H]2C(=O)OCc2ccccc2)c1` [Compound 9], the Ki in test [1] was found to be 0.3 µM. The IC50 in test [2] was above 10 µM; in test [3], 6.5 µM; in test [4] it was above 10 µM; in test [6], above 10 µM. Also, the Kd in test [5] was above 1.3 µM.
On to `COc1cc(C(=O)C(=O)N2CCCC[C@H]2C(=O)OCCCCc2c[nH]c3ccccc23)cc(OC)c1OC` [Compound 94], for which the Ki in test [1] came to 0.016 µM. The IC50 in test [2] was above 10 µM; in test [3] it was 5.5 µM; in test [4] it was 7 µM; in test [6], 5 µM. The Kd in test [5] came out at 0.05 µM.
For `O=C(C(=O)N1CCCC[C@H]1C(=O)OCc1ccccc1)c1cccc2ccccc12` [Compound 48], in test [1], the Ki was 1 µM. Besides, the IC50 in test [2], in test [3], in test [4] and in test [6] was above 10 µM throughout. Moreover, the Kd in test [5] is 2 µM.
Consider `COc1ccc(C=CCCOC(=O)[C@@H]2CCCCN2C(=O)C(=O)c2cc(OC)c(OC)c(OC)c2)cc1` [Compound 90], for which, in test [1], the Ki amounted to 0.011 µM. Moreover, the IC50 is above 10 µM in test [2], above 10 µM in test [3], above 10 µM in test [4] and 8 µM in test [6]. In addition, the Kd in test [5] came to 0.6 µM.
As for `C=CCOC(=O)Nc1ccc(CCCOC(=O)[C@@H]2CCCCN2C(=O)C(=O)c2cc(OC)c(OC)c(OC)c2)cc1` [Compound 88], in test [1], the Ki was found to be 0.011 µM. Moreover, the IC50 in test [2] amounted to 2.5 µM; in test [3], 2.2 µM; in test [4], 4.5 µM; in test [6], 2.2 µM. For the same molecule, the Kd in test [5] is 0.07 µM.
On to `COc1cc(C(=O)C(=O)N2CCCC[C@H]2C(=O)OCc2ccccc2)cc(OC)c1OC` [Compound 13], for which the Ki in test [1] was determined as 0.1 µM. The IC50 is above 10 µM in test [2], 5.9 µM in test [3], above 10 µM in test [4] and above 10 µM in test [6]. Further, the Kd in test [5] turned out to be 2 µM.
